“And” between values parts separate entries of the source, which are not always exact repeats. Equal values may be shown once. “Also recorded” adds a separate entry of the source.
Key:
Aptamer 21-E [1] = assay: SEC/LCMS binding to Aptamer 21-E
Protocol: The RNA concentration was 1 μM and the ligand concentration ranged from 0.1 to 10 μM in an appropriate buffer (TRIS-HCl 20 mM pH 8.0, MgCl2 3 mM, KCl 100 mM).
The RNA/ligand mixtures were incubated at room temperature for 20 minutes in a 96-well plate format, then this plate was loaded into an autosampler linked to the chromatography system fitted with a reusable SEC column for rapid separation of target/ligand complexes from unbound components. RNA/ligand complexes in SEC eluent were monitored by UV detection, and an automated valving system directed the RNA peak to a reverse phase chromatography column for dissociation, desalting, and elution of any ligands into an ESI-MS system for identification.
All liquid chromatographic components were HP1200 modules. The mass spectrometer was the Waters LCT premier instrument operated in positive electrospray (ES+) TOF-MS mode. The mass range acquired was 80-1000 m/z in 0.25 s. The SEC column was 50×4.6 mm polyhydroxyethyl column. The SEC mobile phase was 50 mM phosphate buffer with 200 mM NaCl, pH=7.0. The LC column was a 2.1×50 mm C18 Phenomenex column. The gradient LC mobile phase A was 0.1% formic acid in water and B was acetonitrile/water with 0.1% formic acid. The run time was 7.9 min.
The start of saturation was between 1 and 3 μM.

Aptamer 21 = assay: Surface plasmon resonance (SPR) binding to Aptamer 21; settings: listed as ARK-139
Source text: (§1) Surface plasmon resonance (SPR) may be used to screen ligands and hook and click constructs for binding to a target RNA of interest. SPR is especially useful for monitoring biomolecular interactions in real time. Typically, target species and unrelated control are immobilized to a sensor chip, then analytes (compounds/fragments) are flowed over the surface. Binding of the compound to target species results in increase of SPR signal (association phase). Washing away bound compound with buffer results in a decrease of SPR signal (dissociation phase). Fitting of sensorgrams recorded at different compound concentrations is performed to an appropriate interaction model. The method allows extraction of kinetic parameters (ka, kd→KD). Requirements/limitations include that the ka/kd values be in reasonable ranges; and the target size must not be too large (<100 kDa). It is an excellent method to screen fragments and profile or validate hits. BC4000 may be used for primary screening (up to 4,000 data pts/week). Biacore T200 is suitable for hit profiling and validation.
In the PEARL-seq context, SPR allows monitoring binding of “hooks” to DNA/RNA aptamers. The target species is immobilized to sensor chip, analytes (i.e. hooks) are flowed over surface (association phase), DNA/RNA aptamer is flowed over surface (plateau phase), competitor compound is washed over surface (dissociation phase), thus yielding binding data.
Experiments were performed on a MASS-2 (Sierra Sensors) at 25° C. A high capacity amine chip was equilibrated with PBS. The chip was conditioned with alternating injections of 10 mM HCl and 10 mM NaOH in 1 M NaCl. The carboxymethylated dextran of the surface of the amine chip was activated for 7 minutes at a flow rate of 10 μL/min using a 1:1 volume ratio of 0.4 M 1-ethyl-3-(3-dimethylaminopropyl) carbodiimide (Sierra) and 0.1 M N-hydroxysuccinimide (Sierra). Neutravidin (70 μg/mL, Thermofisher) was injected over the activated surface for 10 minutes at a flow rate of 10 μl/min. Excess activated groups were blocked by an injection of 1 M ethanolamine, pH 8.5 (Sierra) for 7 minutes at a flow rate of 10 μl/min. A final injection of 10 mM NaOH in 1 M NaCl for 7 minutes at 10 μl/min was used to remove any unbound material to the chip. The immobilization reaction typically yielded approximately 12,000 resonance units (RU) of neutravidin. At least one spot in a channel was not injected with RNA and was used as a background control. Unrelated RNA was also used as a background control.
A 1 μM sample of biotin-aptamer 21 was prepared in RNAse free water, heated to 95° C. for 3 minutes, cooled on ice for 4 minutes, diluted with an equal volume 2× folding buffer (40 mM Tris-HCl, pH 8.0, 6 mM MgCl2, 200 mM KCl), and incubated at 37° C. for 30 minutes. The final concentration of RNA was 0.5 μM.
The MASS-2 was primed 2 times with 20 mM Tris-HCl, pH 8.0, 3 mM MgCl2, 100 mM KCl (Capture Buffer). RNA was injected over the neutravidin surface for 7 minutes at a flow rate of 10 μl/min. Capture levels typically reached approximately 3500-4500 of resonance units of aptamer 21.
Compounds were diluted 2-fold in 100% DMSO at a starting concentration of 500 μM.
The MASS-2 was primed 2 times with 20 mM Tris-HCl, pH 8.0, 3 mM MgCl2, 100 mM KCl, 1% DMSO (running buffer). Prior to testing compounds 3 injections of running buffer were used to equilibrate the sensor surface. […]

Aptamer 21-E [2] = assay: SPR binding to mutant Aptamer 21-E; settings: data not shown; listed as ARK-139
Source text: as §1
Experiments were performed on a MASS-2 (Sierra Sensors) at 25° C. A high capacity amine chip was equilibrated with PBS. The chip was conditioned with alternating injections of 10 mM HCl and 10 mM NaOH in 1 M NaCl. […]

COC(=O)C1=C(COCc2cn(CCOCCOCCO)nn2)NC(c2ccncc2)=NC1c1ccc(F)cc1Cl (racemic) [I-1]
binding to Aptamer 21-E by SEC/LCMS (Aptamer 21-E [1]): does not bind
Kd (Aptamer 21; binding to Aptamer 21, read-out: calculated KD by SPR): 568 nM and 420 nM
binding to Aptamer 21 by SPR (Aptamer 21): binds; also recorded: SPR-active
binding to Aptamer 21-E by SPR (Aptamer 21-E [2]): not to bind; also recorded: did not bind
